# From US8436002B2, “AKT inhibitors” (Eli Lilly and Company, priority 2009, dated 2013)
# “And” between values parts separate entries of the source, which are not always exact repeats. Equal values may be shown once.
# Experiments:
# MDA-MB-231 = test: Cell proliferation combination study (CellTiter-Glo); format: cell-based
# Protocol: (§1) The proliferation assay uses the CellTiter-Glo Luminescent Cell Viability Assay System (commercially available from Promega) to determine the cell number of viable cells in culture based on quantitation of the ATP present, which signals the presence of metabolically active cells.
# (§2) The cells are plated in 96-well plate at 2000 cells/well in volume of 50 μL medium (DMEM, 10% FBS, 25 mM HEPES, 1.0 mM Sodium Pyruvate, and 0.1 mM Non Essential Amino Acids) except column 1 with medium only as blank control. The plates are incubated overnight at 37° C. and 5% CO2. On the next day, compound stocks are prepared at 40 mM in DMSO (500×) and serially diluted in DMSO in a 96-well round bottom polypropylene plate. Compounds are assayed at 10 concentrations in duplicate, 4 compounds per plate.
# (§3) 4 μL of the serial DMSO dilutions are transferred to a 96 deep-well plate and 1 mL complete culture medium is added to create 2× stock for dosing. 50 μL of each 2× dosing stock is gently transferred to the corresponding well of the cell plate resulting in a 0.2% DMSO concentration and a 100 μL final volume. […] medium are added to the Control columns (Column 12) and background columns (Column 1). Cells are incubated with compound for at 37° C., 5% CO2 for 72 hr.
# (§4) After incubation, 100 μL of the pre-prepared CellTiter-Glo reagent (Promega, Cat: G7571) is added in each well and then the cells are homogenized by mixing on an orbital shaker for 2 min and incubated at RT for 10 minutes to allow luminescent signal stabilization Luminescent raw data is recorded on Wallac Victor V plate reader and the IC50 value for each compound is generated using percent inhibition data. A four-parameter logistic curve is fit to each dose response.
# (§5) Combination studies use the fixed ratio method, where the other therapeutic agent and the compound of the present invention are present in fixed ratios of concentrations corresponding to the IC50 equivalents of single agents. The read out for the combination studies is cell proliferation in respective cell lines using Cell Titer Glo reagents. Controls are processed similarly but without the compounds. Analysis of the data is done according to the method described in Zhao et. Al. (Clinical Cancer Research 10, 7994-8004, Dec. 1, 2004) utilizing an internally developed web based tool. A combination index is calculated for each cell proliferation inhibition activity level according to the equation below. Combination Index at activity level x=[Concentration of other therapeutic agent in the combination at the activity level x/ICx of the other therapeutic agent]+[Concentration of the compound of the present invention in the combination at the activity level x/ICx of the compound of the present invention]
# Calu6 = test: as above; format: cell-based
# Protocol: as §1, §2, §3, §4, §5
# SK0V3 = test: as above; format: cell-based
# Protocol: as §1, §2, §3, §4, §5
# NCIH460 = test: as above; format: cell-based
# Protocol: as §1, §2, §3, §4, §5
# H1650 = test: as above; format: cell-based
# Protocol: as §1, §2, §3, §4, §5
# MCF-7 = test: as above; format: cell-based
# Protocol: as §1, §2, §3, §4, §5
# AsPC1 = test: as above; format: cell-based
# Protocol: as §1, §2, §3, §4, §5
# RKO = test: as above; format: cell-based; details: with Irinotecan
# Protocol: as §1, §2, §3, §4, §5
# NCI-H1975 = test: as above; format: cell-based
# Protocol: as §1, §2, §3, §4, §5
# H1155 = test: as above; format: cell-based; details: with Gemcitabine
# Protocol: as §1, §2, §3, §4, §5
# HCC827 = test: as above; format: cell-based
# Protocol: as §1, §2, §3, §4, §5
# A2780 = test: as above; format: cell-based
# Protocol: as §1, §2, §3, §4, §5
# BxPC3 = test: as above; format: cell-based
# Protocol: as §1, §2, §3, §4, §5
# AKT = AKT In Vivo Target Inhibition (IV), U87MG tumors in athymic rats; details: Rattus norvegicus, U-87 MG, IV dose 20 mpk, 4 hr post IV dose, n = 2, read-out: p(S9)GSK 3β - % inhibition
# Protocol: Exponentially growing U87MG cells derived from a human glioblastoma are implanted subcutaneously in the rear flank of athymic rats. When the tumors reach the size of 200-250 mm^3, compounds are administered to the animals by a single IV injection in a dose-response study or in a time-course study. At the end of each treatment, animals are asphyxiated with CO2. Tumors are harvested by surgical excision, quickly frozen in liquid nitrogen and stored at −80° C. until analysis. Sera are prepared from blood harvested from the heart by cardiac puncture and stored at −80° C. until analysis.
# The AKT inhibitor is extracted from serum with acetonitrite/methanol and analyzed alongside an internal standard by LC/MS/MS. […]
# Tumors are homogenized in 2 volumes of a lysis buffer containing 25 mM Tris (pH 7.5), Roche complete protease inhibitors, and 1 mM vanadate with Powergen 125 homogenizer, then sequentially passed through an 18 gauge needle and a 23 gauge needle. […] Protein concentrations in the cytoplasmic extracts are determined with a BCA kit. Phospho-GSK3b (pGSK3b) in the soluble extracts is analyzed with the ELISA Kit. For each study, percent inhibitions are calculated relative to the vehicle control group and ANOVA analysis is performed using the JMP software package for the determination of statistical significance.
smiles,measurement,setting,value
"C[C@@H]1CC(=O)Nc2ncnc(N3CCC(c4nc(C(F)(F)F)cn4CCN4CCCC4)CC3)c21 (single isomer, unassigned) [Example 77]",Combination Index at 50% Inhibition,MDA-MB-231; with Erlotinib,0.05
same,Combination Index at 50% Inhibition,MDA-MB-231; with Gemcitabine,0.39
same,Combination Index at 50% Inhibition,MDA-MB-231; with Paclitaxel,1.13
same,Combination Index at 50% Inhibition,MDA-MB-231; with Rapamycin,0.01
same,Combination Index at 50% Inhibition,Calu6; with Cisplatin,0.86
same,Combination Index at 50% Inhibition,Calu6; with Docetaxel,0.65
same,Combination Index at 50% Inhibition,Calu6; with Erlotinib,0.20
same,Combination Index at 50% Inhibition,Calu6; with Gemcitabine,1.16
same,Combination Index at 50% Inhibition,Calu6; with Pemetrexed,0.93
same,Combination Index at 50% Inhibition,Calu6; with Tasisulam,1.16
same,Combination Index at 50% Inhibition,SK0V3; with Cisplatin,1.00
same,Combination Index at 50% Inhibition,SK0V3; with Doxorubicin,1.12
same,Combination Index at 50% Inhibition,NCIH460; with Cisplatin,0.76 and 0.91
same,Combination Index at 50% Inhibition,NCIH460; with Docetaxel,0.82
same,Combination Index at 50% Inhibition,NCIH460; with Erlotinib,0.64
same,Combination Index at 50% Inhibition,NCIH460; with Gemcitabine,0.88
same,Combination Index at 50% Inhibition,H1650; with Erlotinib,0.04
same,Combination Index at 50% Inhibition,H1650; with Gemcitabine,0.43
same,Combination Index at 50% Inhibition,H1650; with Rapamycin,0.07
same,Combination Index at 50% Inhibition,MCF-7; with Erlotinib,0.58
same,Combination Index at 50% Inhibition,MCF-7; with Gemcitabine,0.10
same,Combination Index at 50% Inhibition,MCF-7; with Paclitaxel,0.60
same,Combination Index at 50% Inhibition,MCF-7; with Rapamycin,0.46
same,Combination Index at 50% Inhibition,MCF-7; with Tamoxifen,0.74
same,Combination Index at 50% Inhibition,AsPC1; with Erlotinib,0.23
same,Combination Index at 50% Inhibition,AsPC1; with Gemcitabine,0.23
same,Combination Index at 50% Inhibition,AsPC1; with Rapamycin,0.22
same,Combination Index at 50% Inhibition,RKO,0.83
same,Combination Index at 50% Inhibition,NCI-H1975; with Cisplatin,0.77
same,Combination Index at 50% Inhibition,NCI-H1975; with Docetaxel,1.13
same,Combination Index at 50% Inhibition,NCI-H1975; with Erlotinib,0.47
same,Combination Index at 50% Inhibition,NCI-H1975; with Gemcitabine,0.55
same,Combination Index at 50% Inhibition,NCI-H1975; with Pemetrexed,1.73
same,Combination Index at 50% Inhibition,H1155,0.43
same,Combination Index at 50% Inhibition,"HCC827; with Erlotinib, HCC827",1.87
same,Combination Index at 50% Inhibition,"HCC827; with Gemcitabine, HCC827",0.17
same,Combination Index at 50% Inhibition,"HCC827; with Rapamycin, HCC-827",1.13
same,Combination Index at 50% Inhibition,A2780; with Cisplatin,0.93
same,Combination Index at 50% Inhibition,A2780; with Doxorubicin,0.85
same,Combination Index at 50% Inhibition,BxPC3; with Erlotinib,0.36
same,Combination Index at 50% Inhibition,BxPC3; with Gemcitabine,1.13
same,Combination Index at 50% Inhibition,BxPC3; with Rapamycin,0.15
"C[C@@H]1CC(=O)Nc2ncnc(N3CCC(c4nc(C(F)(F)F)cn4CCN4CCCC4)CC3)c21 [Example 78, (R)-5-Methyl-4-(4-(1-(2-(pyrrolidin-1-yl)ethyl)-4-(trifluoromethyl)-1H-imidazol-2-yl)piperidin-1-yl)-5,6-dihydropyrido[2,3-d]pyrimidin-7(8H)-one]",inhibition at 20 mg/kg,AKT,48%
